By MIC is commonly meant the least concentration at which growth counts as inhibited.

The values below come from patent US9527867B2, “Antibacterial biaromatic derivatives” (Actelion Pharmaceuticals Ltd., priority 2013, dated 2016).

Holding throughout (test): Bacterial growth minimal inhibitory concentration (broth microdilution, CLSI M7-A7)
Holding throughout (assay type): cell-based
For orientation: Broth dilution looks for growth in wells or tubes with falling amounts of substance.

Assay [1] deals with Staphylococcus aureus ATCC29213. Particulars: Staphylococcus aureus, ATCC29213, cation-adjusted Mueller-Hinton Broth, methicillin-sensitive and quinolone-sensitive strain, read-out: MIC for S. aureus ATCC29213. The procedure, abridged: (§1)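 Compounds are serially diluted in cation-adjusted Mueller-Hinton broth, inoculated and scored for MIC (mg/L) per the CLSI M7-A7 microdilution standard. A798 and T6474 carry multiple resistances including to quinolones.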

Assay [2] has as its system Enterococcus faecium A949. The following applies: Enterococcus faecium, A949, cation-adjusted Mueller-Hinton Broth, multiply-resistant strain (in particular quinolone-resistant), read-out: MIC for E. faecium A949. The procedure, abridged:
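Broth microdilution after CLSI M7-A7 in cation-adjusted Mueller-Hinton medium gave MIC values in mg/L.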

In assay [3] the test system is Acinetobacter baumannii T6474. Particulars: Acinetobacter baumannii, T6474, cation-adjusted Mueller-Hinton Broth, multiply-resistant strain (in particular quinolone-resistant). The procedure, abridged:
as §1

Assay [4] deals with Staphylococcus aureus A798. The following applies: Staphylococcus aureus, A798, cation-adjusted Mueller-Hinton Broth, multiply-resistant strain (in particular quinolone-resistant), read-out: MIC for S. aureus A798. The procedure, abridged:
as §1

Assay [5] has as its system Moraxella catarrhalis A894. The following applies: Moraxella catarrhalis, A894, cation-adjusted Mueller-Hinton Broth, quinolone-sensitive strain. The procedure, abridged: as §1

Converted amounts (≈) assume the structure as drawn.

As to `COc1cccc(-c2cccc(CNCC[C@H]3CN(c4ccc5c(c4)NC(=O)CS5)C(=O)O3)c2)n1` [Example 43, 6-((S)-5-{2-[3-(6-methoxy-pyridin-2-yl)-benzylamino]-ethyl}-2-oxo-oxazolidin-3-yl)-4H-benzo[1,4]thiazin-3-one], the MIC in assay [1] is 0.125 µg/mL (≈ 0.255 µM); in assay [2], 2 µg/mL (≈ 4.08 µM); in assay [3], 0.5 µg/mL (≈ 1.02 µM); in assay [4], 0.063 µg/mL (≈ 0.128 µM); in assay [5], not above 0.016 µg/mL.

`COc1cnnc(-c2cccc(CNCC[C@H]3CN(c4ccc5c(n4)NC(=O)CO5)C(=O)O3)c2)c1` [Example 44, 6-((S)-5-{2-[3-(5-methoxy-pyridazin-3-yl)-benzylamino]-ethyl}-2-oxo-oxazolidin-3-yl)-4H-pyrido[3,2-b][1,4]oxazin-3-one]: the MIC in assay [1] was 0.25 µg/mL (≈ 0.525 µM); in assay [2], 8 µg/mL (≈ 16.8 µM); in assay [3], 0.25 µg/mL (≈ 0.525 µM); in assay [4] it was 0.125 µg/mL (≈ 0.262 µM); in assay [5], not above 0.016 µg/mL.

With `N#Cc1ccc(O)c(-c2cccc(CNCC[C@H]3CN(c4ccc5c(n4)NC(=O)CO5)C(=O)O3)c2)c1` [Example 45, 6-hydroxy-3′-({2-[(S)-2-oxo-3-(3-oxo-3,4-dihydro-2H-pyrido[3,2-b][1,4]oxazin-6-yl)-oxazolidin-5-yl]-ethylamino}-methyl)-biphenyl-3-carbonitrile], the MIC in assay [1] is 2 µg/mL (≈ 4.12 µM); in assay [2] it was more than 8 µg/mL; in assay [3], 2 µg/mL (≈ 4.12 µM); in assay [4], 4 µg/mL (≈ 8.24 µM); in assay [5], 0.125 µg/mL (≈ 0.257 µM).

For `N#Cc1cccc(-c2cc(CNCC[C@H]3CN(c4ccc5c(n4)NC(=O)CO5)C(=O)O3)ccn2)c1` [Example 46, 3-[4-({2-[(S)-2-oxo-3-(3-oxo-3,4-dihydro-2H-pyrido[3,2-b][1,4]oxazin-6-yl)-oxazolidin-5-yl]-ethylamino}-methyl)-pyridin-2-yl]-benzonitrile], the MIC in assay [1] came out at 0.5 µg/mL (≈ 1.06 µM); in assay [2], 2 µg/mL (≈ 4.25 µM); in assay [3], 0.25 µg/mL (≈ 0.531 µM); in assay [4], 0.5 µg/mL (≈ 1.06 µM); in assay [5], 0.031 µg/mL (≈ 0.0659 µM).

`N#Cc1cc(O)nc(-c2cccc(CNCC[C@@H]3CN(c4ccc5c(c4)NC(=O)CS5)C(=O)O3)c2)c1` [Example 47, 2-hydroxy-6-[3-({2-[(R)-2-oxo-3-(3-oxo-3,4-dihydro-2H-benzo[1,4]thiazin-6-yl)-oxazolidin-5-yl]-ethylamino}-methyl)-phenyl]-isonicotinonitrile]: the MIC is 4 µg/mL (≈ 7.97 µM) in assay [1]; more than 8 µg/mL in assay [2]; 8 µg/mL (≈ 15.9 µM) in assay [3]; 4 µg/mL (≈ 7.97 µM) in assay [4]; 0.25 µg/mL (≈ 0.498 µM) in assay [5].

In the case of `COc1ccc(-c2cccc(CNCC[C@H]3CN(c4ccc5c(n4)NC(=O)CO5)C(=O)O3)c2)cc1OC` [Example 48, 6-((S)-5-{2-[(3′,4′-dimethoxy-biphenyl-3-ylmethyl)-amino]-ethyl}-2-oxo-oxazolidin-3-yl)-4H-pyrido[3,2-b][1,4]oxazin-3-one], the MIC in assay [1] stood at 4 µg/mL (≈ 7.93 µM); in assay [2], 16 µg/mL (≈ 31.7 µM); in assay [3], 16 µg/mL (≈ 31.7 µM); in assay [4], 4 µg/mL (≈ 7.93 µM); in assay [5], 0.125 µg/mL (≈ 0.248 µM).

Take `N#Cc1cccc(-c2cc(CNCCc3cn(-c4ccc5c(n4)NC(=O)CO5)c(=O)o3)ccn2)c1` [Example 49, 3-[4-({2-[2-oxo-3-(3-oxo-3,4-dihydro-2H-pyrido[3,2-b][1,4]oxazin-6-yl)-2,3-dihydro-oxazol-5-yl]-ethylamino}-methyl)-pyridin-2-yl]-benzonitrile]: the MIC in assay [1] came to 1 µg/mL (≈ 2.13 µM); in assay [2] it was 8 µg/mL (≈ 17.1 µM); in assay [3] it was 0.5 µg/mL (≈ 1.07 µM); in assay [4], 2 µg/mL (≈ 4.27 µM); in assay [5], 0.031 µg/mL (≈ 0.0662 µM).

In the case of `O=C1COc2ccc(N3C[C@H](CCNCc4cccc(-c5cccc(OCC6CCC6)c5)c4)OC3=O)nc2N1` [Example 50, 6-((S)-5-{2-[(3′-cyclobutylmethoxy-biphenyl-3-ylmethyl)-amino]-ethyl}-2-oxo-oxazolidin-3-yl)-4H-pyrido[3,2-b][1,4]oxazin-3-one], the MIC in assay [1] is 4 µg/mL (≈ 7.57 µM); in assay [2] it was 8 µg/mL (≈ 15.1 µM); in assay [3] it was more than 8 µg/mL; in assay [4] it was 2 µg/mL (≈ 3.78 µM); in assay [5], 0.5 µg/mL (≈ 0.946 µM).

Take `COc1cccc(-c2cccc(CNCCc3nn(-c4ccc5c(n4)NC(=O)CO5)c(=O)o3)c2)n1` [Example 51, 6-(5-{2-[3-(6-methoxy-pyridin-2-yl)-benzylamino]-ethyl}-2-oxo-[1,3,4]oxadiazol-3-yl)-4H-pyrido[3,2-b][1,4]oxazin-3-one]: the MIC was 0.5 µg/mL (≈ 1.05 µM) in assay [1]; 2 µg/mL (≈ 4.22 µM) in assay [2]; 0.5 µg/mL (≈ 1.05 µM) in assay [3]; 1 µg/mL (≈ 2.11 µM) in assay [4]; not above 0.016 µg/mL in assay [5].

Take `COc1ccc(C#N)c(-c2cccc(CNCCc3nn(-c4ccc5c(n4)NC(=O)CO5)c(=O)o3)c2)c1` [Example 52, 5-methoxy-3′-({2-[5-oxo-4-(3-oxo-3,4-dihydro-2H-pyrido[3,2-b][1,4]oxazin-6-yl)-4,5-dihydro-[1,3,4]oxadiazol-2-yl]-ethylamino}-methyl)-biphenyl-2-carbonitrile]: the MIC in assay [1] stood at 0.5 µg/mL (≈ 1 µM); in assay [2], 4 µg/mL (≈ 8.02 µM); in assay [3] it was 2 µg/mL (≈ 4.01 µM); in assay [4], 1 µg/mL (≈ 2.01 µM); in assay [5] it was 0.031 µg/mL (≈ 0.0622 µM).

Regarding `O=C1COc2ccc(N3C[C@H](CCNCc4cccc(-c5cccc(OCCCO)c5)c4)OC3=O)nc2N1` [Example 53, 6-[(S)-5-(2-{[3′-(3-hydroxy-propoxy)-biphenyl-3-ylmethyl]-amino}-ethyl)-2-oxo-oxazolidin-3-yl]-4H-pyrido[3,2-b][1,4]oxazin-3-one], the MIC in assay [1] turned out to be 2 µg/mL (≈ 3.86 µM); in assay [2] it was 16 µg/mL (≈ 30.9 µM); in assay [3], 4 µg/mL (≈ 7.71 µM); in assay [4], 1 µg/mL (≈ 1.93 µM); in assay [5] it was 0.125 µg/mL (≈ 0.241 µM).

As to `COCCOc1cccc(-c2cccc(CNCC[C@H]3CN(c4ccc5c(n4)NC(=O)CO5)C(=O)O3)c2)c1` [Example 54, 6-[(S)-5-(2-{[3′-(2-methoxy-ethoxy)-biphenyl-3-ylmethyl]-amino}-ethyl)-2-oxo-oxazolidin-3-yl]-4H-pyrido[3,2-b][1,4]oxazin-3-one], the MIC in assay [1] came to 2 µg/mL (≈ 3.86 µM); in assay [2], 16 µg/mL (≈ 30.9 µM); in assay [3], 8 µg/mL (≈ 15.4 µM); in assay [4], 2 µg/mL (≈ 3.86 µM); in assay [5], 0.125 µg/mL (≈ 0.241 µM).

For the molecule `COc1cc(-c2cccc(CNCC[C@H]3CN(c4ccc5c(n4)NC(=O)CO5)C(=O)O3)c2)ccn1` [Example 55, 6-((S)-5-{2-[3-(2-methoxy-pyridin-4-yl)-benzylamino]-ethyl}-2-oxo-oxazolidin-3-yl)-4H-pyrido[3,2-b][1,4]oxazin-3-one], the MIC in assay [1] was 2 µg/mL (≈ 4.21 µM); in assay [2] it was more than 8 µg/mL; in assay [3], 1 µg/mL (≈ 2.1 µM); in assay [4], 2 µg/mL (≈ 4.21 µM); in assay [5] it was 0.031 µg/mL (≈ 0.0652 µM).

In the case of `N#Cc1cccc(-c2cccc(CNCCc3nn(-c4ccc5c(n4)NC(=O)CO5)c(=O)o3)c2)c1` [Example 56, 3′-({2-[5-oxo-4-(3-oxo-3,4-dihydro-2H-pyrido[3,2-b][1,4]oxazin-6-yl)-4,5-dihydro-[1,3,4]oxadiazol-2-yl]-ethylamino}-methyl)-biphenyl-3-carbonitrile], the minimum inhibitory concentration (MIC) in assay [1] is 0.5 µg/mL (≈ 1.07 µM); in assay [2], 4 µg/mL (≈ 8.54 µM); in assay [3], 1 µg/mL (≈ 2.13 µM); in assay [4], 2 µg/mL (≈ 4.27 µM); in assay [5], not above 0.016 µg/mL.

With `O=C1COc2ccc(N3C[C@H](CCNCc4cccc(-c5cccc(OCC6CC6)c5)c4)OC3=O)nc2N1` [Example 58, 6-((S)-5-{2-[(3′-cyclopropylmethoxy-biphenyl-3-ylmethyl)-amino]-ethyl}-2-oxo-oxazolidin-3-yl)-4H-pyrido[3,2-b][1,4]oxazin-3-one], the MIC in assay [1] is 2 µg/mL (≈ 3.89 µM); in assay [2], 8 µg/mL (≈ 15.5 µM); in assay [3], 8 µg/mL (≈ 15.5 µM); in assay [4], 1 µg/mL (≈ 1.94 µM); in assay [5], 0.125 µg/mL (≈ 0.243 µM).

Take `COc1cc(-c2cccc(CNCC[C@H]3CN(c4ccc5c(n4)NC(=O)CO5)C(=O)O3)c2)cnn1` [Example 59, 6-((S)-5-{2-[3-(6-methoxy-pyridazin-4-yl)-benzylamino]-ethyl}-2-oxo-oxazolidin-3-yl)-4H-pyrido[3,2-b][1,4]oxazin-3-one]: the minimal inhibitory concentration (MIC) in assay [1] is 2 µg/mL (≈ 4.2 µM); in assay [2], more than 8 µg/mL; in assay [3], 2 µg/mL (≈ 4.2 µM); in assay [4] it was 4 µg/mL (≈ 8.39 µM); in assay [5], 0.125 µg/mL (≈ 0.262 µM).

For the molecule `N#Cc1cc(-c2cccc(CNCC[C@H]3CN(c4ccc5c(n4)NC(=O)CO5)C(=O)O3)c2)cnn1` [Example 60, 5-[3-({2-[(S)-2-oxo-3-(3-oxo-3,4-dihydro-2H-pyrido[3,2-b][1,4]oxazin-6-yl)-oxazolidin-5-yl]-ethylamino}-methyl)-phenyl]-pyridazine-3-carbonitrile], the MIC in assay [1] is 2 µg/mL (≈ 4.24 µM); in assay [2], more than 8 µg/mL; in assay [3] it was 1 µg/mL (≈ 2.12 µM); in assay [4], 4 µg/mL (≈ 8.48 µM); in assay [5] it was 0.063 µg/mL (≈ 0.134 µM).

On to `N#Cc1cccc(-c2cccc(CNCCc3nn(-c4ccc5c(n4)NC(=O)CO5)c(=O)o3)c2O)n1` [Example 61, 6-[2-hydroxy-3-({2-[5-oxo-4-(3-oxo-3,4-dihydro-2H-pyrido[3,2-b][1,4]oxazin-6-yl)-4,5-dihydro-[1,3,4]oxadiazol-2-yl]-ethylamino}-methyl)-phenyl]-pyridine-2-carbonitrile], for which the minimal inhibitory concentration (MIC) in assay [1] is 0.25 µg/mL (≈ 0.515 µM); in assay [2], 2 µg/mL (≈ 4.12 µM); in assay [3], 0.5 µg/mL (≈ 1.03 µM); in assay [4] it was 0.5 µg/mL (≈ 1.03 µM); in assay [5] it was not above 0.016 µg/mL.
